Reference: US12162858B2, “Quinoline derivatives as inhibitors of AXL/MER RTK and CSF1R” (QURIENT CO., LTD., priority 2018, dated 2024)

Molecular target: T1, Mer (Ba/F3 cells) (Homo sapiens, UniProt Q12866)
T1 sequence (Q12866 1-999): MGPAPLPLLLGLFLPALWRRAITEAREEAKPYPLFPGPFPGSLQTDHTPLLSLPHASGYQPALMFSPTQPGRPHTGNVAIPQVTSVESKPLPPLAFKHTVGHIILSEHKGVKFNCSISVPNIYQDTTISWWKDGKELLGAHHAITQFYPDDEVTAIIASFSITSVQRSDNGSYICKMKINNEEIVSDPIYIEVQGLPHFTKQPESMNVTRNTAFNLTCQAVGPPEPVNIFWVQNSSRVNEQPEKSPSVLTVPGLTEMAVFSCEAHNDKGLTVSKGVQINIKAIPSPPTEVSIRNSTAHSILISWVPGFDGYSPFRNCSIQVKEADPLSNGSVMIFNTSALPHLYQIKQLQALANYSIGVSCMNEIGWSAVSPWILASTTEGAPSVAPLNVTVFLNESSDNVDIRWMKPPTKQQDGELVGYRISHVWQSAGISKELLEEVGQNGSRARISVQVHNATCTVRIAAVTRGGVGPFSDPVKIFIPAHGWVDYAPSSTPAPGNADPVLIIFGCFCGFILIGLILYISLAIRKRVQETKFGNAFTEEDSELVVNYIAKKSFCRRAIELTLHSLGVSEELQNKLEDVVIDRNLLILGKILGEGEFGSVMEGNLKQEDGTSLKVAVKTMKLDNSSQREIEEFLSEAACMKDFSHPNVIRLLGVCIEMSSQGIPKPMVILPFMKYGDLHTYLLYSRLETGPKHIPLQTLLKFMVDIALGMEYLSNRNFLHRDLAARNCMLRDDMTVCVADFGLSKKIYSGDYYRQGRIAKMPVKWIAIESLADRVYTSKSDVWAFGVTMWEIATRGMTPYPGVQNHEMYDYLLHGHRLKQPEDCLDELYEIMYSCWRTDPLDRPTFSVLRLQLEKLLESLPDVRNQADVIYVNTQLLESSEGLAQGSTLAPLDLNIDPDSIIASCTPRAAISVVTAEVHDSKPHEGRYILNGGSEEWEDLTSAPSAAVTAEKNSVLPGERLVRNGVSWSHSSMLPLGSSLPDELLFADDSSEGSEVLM
Assay: BaF3 viability assay, Mer-dependent cells
Assay type: cell-based
Conditions: read-out: Cellular Mer activity by Ba/F3 assay (IC50)
Source text: In this system, IL-3-dependent Ba/F3 cells are modified to express an activated recombinant kinase (in the present case Axl, Mer and CSF1R). Following removal of IL-3, the modified cells are dependent on the activity of the recombinant kinase for survival and proliferation. Inhibition of such kinase(s) through test compounds reduces survival and proliferation of the cells.
Cell lines were maintained in growth media (GM) consisting of RPMI 1640 supplemented with 10% FBS. Cells in logarithmic-phase growth were harvested and 5,000 cells were distributed into each well of a 384-well plate in 50 μl GM. Parental cells (or experimental assays where specified) were further supplemented with 2 ng/ml IL-3 to support cell growth and survival. Fifty nanoliters of the indicated reference standard or experimental compound were added to appropriate wells (in duplicate) and the cells were cultured for 48 h at 37° C./5% CO2. Viability was determined by adding 10 μl Cell Titer Glo and measuring luminescence, which is reported as relative light units (RLU) measured in counts per second. The following calculations and formulas are used for data analysis using GraphPad Prism software: The curve fitting was made using the Dose response curves-Inhibition.

**Q.** With `CCCn1cc(OCCC(O)CO)c(C(=O)Nc2ccc(Oc3ccnc4cc(OC)c(OC)cc34)cn2)n1` (stereo not drawn) [Compound 15] as the molecule, how does the GI50 read?
**A.** Its GI50 is 1000 to 10000 nM.

**Q.** How did the GI50 turn out when `COc1cc2nccc(Oc3ccc(NC(=O)c4nn(CC(C)O)cc4OCC(F)(F)F)nc3)c2cc1OC` (stereo not drawn) [Compound 17] was run?
**A.** Its GI50 is under 1000 nM.

**Q.** Which GI50 does the source give for `COc1cc2nccc(Oc3ccc(NC(=O)c4nn(C[C@@H](C)O)cc4OCC(F)(F)F)nc3)c2cc1OC` [Compound 29] here?
**A.** Its GI50 is under 1000 nM.

**Q.** Which GI50 does the source give for `CCCn1cc(OC(C)C)c(C(=O)Nc2ccc(Oc3ccnc4cc(OC)c(OC(F)(F)F)cc34)c(F)c2)n1` [Compound 35] here?
**A.** Its GI50 is at least 10000 nM.

**Q.** With `COc1cc2nccc(Oc3ccc(NC(=O)c4nn(CCCO)cc4OCC(F)(F)F)nc3)c2cc1OC` [Compound 18] as the molecule, how does the GI50 read?
**A.** Its GI50 is under 1000 nM.

**Q.** `COc1cc2nccc(Oc3ccc(NC(=O)c4nn(C[C@H](C)O)cc4OCC(F)(F)F)nc3)c2cc1OC` [Compound 30] was tested. Which GI50 did it give?
**A.** Its GI50 is under 1000 nM.
